How the values were obtained:
[1] = test system: human HeLa cervical cancer cells; experiment: Implanted HeLa cervical cancer tumor growth in mice, CORT125134 and paclitaxel; assay type: in vivo
Method: Suspensions of human HeLa cervical cancer cells were injected subcutaneously into the right flank of 5-6 week old immunosuppressed female mice (BALB/c nude), five million cells per mouse. Tumors were allowed to grow until they reached a volume of 100-200 mm^3. Mice were then grouped into five groups, ten (10) per group. Group 1 was dosed with the paclitaxel vehicle (sterile saline) intravenously (i.v.) every 4 days and the CORT125134 vehicle orally (p.o.) (10% DMSO, 0.1% Tween 80 and 89.9% HPMC (0.5%), 10 ml/kg) every 4 days. Group 2 was dosed with paclitaxel (7.5 mg/kg) i.v. every 4 days. Group 3 was dosed with paclitaxel i.v. every 4 days and with CORT125134 (30 mg/kg) p.o. the day before the administration of paclitaxel and the same day as the administration of paclitaxel. Group 4 received paclitaxel (15 mg/kg) i.v. every 4 days. Group 5 received paclitaxel (15 mg/kg) i.v. every 4 days and CORT125134 (30 mg/kg) p.o. the day before and the day of paclitaxel (15 mg/kg) i.v. administration.
The longest (L) and shortest (S) diameters of the tumors were measured three times a week with electronic calipers and tumor volume was calculated using the formula for an ellipsoid sphere: S^2×L×(0.5). The tumor growth data are shown in FIG. 1, in which the mean tumor volume for each group of mice is plotted against the number of days of tumor growth since initiation of the treatment. All treatments provide benefit compared to vehicle alone.

SK-OV-3 cells = experiment: Ovarian cancer mouse xenograft model, CORT125134 with gemcitabine/carboplatin; assay type: in vivo, mice
Method: CORT125134 was administered intraperitoneally (i.p.) on days 43, 44, 50 and 51, and gemcitabine/carboplatin was administered i.p. on days 44 and 51. Data represent mean values. SK-OV-3 cells (5 million cells per mouse) were injected in the right flank of female Balb/c nude mice. When tumors reached a volume of 200 mm^3 the mice were randomized into groups of 10 and treatment was initiated. Mice were treated as follows: group 1 received vehicle on dosing days 1, 2, 8 and 9, group 2 received gemcitabine (80 mg/kg i.p.) and carboplatin (15 mg/kg i.p.) on dosing days 2 and 9 and group 3 received gemcitabine/carboplatin in the same regimen as group 2, +CORT125134 (20 mg/kg i.p.) on dosing days 1, 2, 8 and 9. Tumor volumes were measured 3 times a week and tumor volumes were calculated as detailed above. Any mouse in poor condition or with a tumor exceeding 2000 mm^3 was terminated. The results were analyzed as indicated in Example 2 above.

22Rv1 cells = experiment: Prostate cancer (CRPC) mouse xenograft model, CORT125134 with castration; assay type: in vivo; conditions: CORT125134 30 mg/kg p.o. daily for 21 days
Method: 22Rv1 cells (10 million cells per mouse) were injected in the right flank of male Balb/c nude mice. When the tumors reached a volume of 100-200 mm^3 the mice were randomized into groups of 10 and then 2 of the 3 groups were castrated. Treatment was initiated the day after castration as follows: group 1 (not castrated) received vehicle, group 2 (castrated) received vehicle, and group 3 (castrated) received CORT125134 30 mg/kg orally (p.o.) daily for 21 days. Tumor volumes were measured 3 times a week as described previously. Any mouse in poor condition or with a tumor exceeding 3000 mm^3 was terminated. The results were analyzed as indicated in Example 2 above. Data represent mean+SEM.

cervical cancer = experiment: Treating a patient having cervical cancer with SGRM and a chemotherapeutic agent; assay type: in vivo, human; conditions: CORT125134 200 mg once a day for eight weeks with nab-paclitaxel 80 mg per square meter i.v. days 1, 8, 15 of 28-day cycle; one patient
Method: A patient complains of upper abdomen pain. They are experiencing loss of appetite, nausea and vomiting episodes, and significant weight loss. […] The suspected tumor is confirmed by histological analysis to be a cancerous tumor. The patient is treated with CORT125134 at a dose of 200 mg once a day for eight weeks in combination with an intravenous infusion of nab-paclitaxel at a dose of 80 mg per square meter of body-surface area as an intravenous infusion over 30 minutes on days 1, 8, and 15 of every 28-day cycle. Tumor load is monitored using enhanced MRI before, during and after the treatment. The imaging indicate that tumor size is decreasing, and the reduction is more than 50% at the end of the treatment period.

MDA-MB-231 cells = experiment: Triple negative breast cancer (TNBC) mouse xenograft model, CORT125134 with paclitaxel; assay type: in vivo, mice
Method: MDA-MB-231 cells (10 million cells per mouse) were injected orthotopically in the right mammary fat pad in groups of female Balb/c nude mice. When the tumors reached a volume of 100-200 mm^3, the mice were randomized into groups of 10 and treatment was initiated. Mice were treated as follows: group 1 received vehicle daily, group 2 received paclitaxel 5 mg/kg i.v. every 4 days, group 3 received paclitaxel 5 mg/kg i.v. every 4 days and CORT125134 30 mg/kg p.o. daily. Tumor volumes were measured 3 times a week in 2 dimensions using a caliper and the volume expressed in mm^3 using the formula V=0.5 a×b2 where a and b are the long and short diameters of the tumor, respectively. Dosing was continued for 28 days, but any mouse in poor condition or with a tumor exceeding 3000 mm^3 was terminated. For comparison between two groups an independent sample t-test was used; for comparison among three or more groups a one-way ANOVA was performed followed by multiple comparison procedures. A p-value <0.05 was considered to be statistically significant. The effect of CORT125134 in combination with paclitaxel in a triple negative breast cancer (TNBC) mouse xenograft model is shown in FIG. 2. Data represent mean+SEM.

[2] = gemcitabine/carboplatin + CORT125134 20 mg/kg i.p.
[3] = paclitaxel 5 mg/kg i.v. every 4 days + CORT125134 30 mg/kg p.o. daily

## Cn1cc(S(=O)(=O)N2CCC3=Cc4c(cnn4-c4ccc(F)cc4)C[C@]3(C(=O)c3cc(C(F)(F)F)ccn3)C2)cn1 [CORT125134, (R)-(1-(4-fluorophenyl)-6-((1-methyl-1H-pyrazol-4-yl)sulfonyl)-4,4a,5,6,7,8-hexahydro-1H-pyrazolo[3,4-g]isoquinolin-4a-yl)(4-(trifluoromethyl)pyridin-2-yl)methanone]
[1]; CORT125134 30 mg/kg + paclitaxel 15 mg/kg (Group 5) vs CORT125134 30 mg/kg + paclitaxel 7.5 mg/kg (Group 3)
  p, tumor growth comparison Group 3 vs Group 5: 0.0009
[1]; CORT125134 30 mg/kg p.o. day before and day of paclitaxel + paclitaxel 7.5 mg/kg i.v. every 4 days (Group 3) vs paclitaxel 7.5 mg/kg alone (Group 2)
  p, tumor growth comparison Group 2 vs Group 3: 0.008
[1]; CORT125134 30 mg/kg p.o. day before and day of paclitaxel + paclitaxel 15 mg/kg i.v. every 4 days (Group 5) vs paclitaxel 15 mg/kg alone (Group 4)
  p, tumor growth comparison Group 4 vs Group 5: <0.0001
[1]; CORT125134 30 mg/kg p.o. with paclitaxel 7.5 or 15 mg/kg i.v., either dose of paclitaxel
  tumor growth, combination of paclitaxel and CORT125134 compared with paclitaxel alone: more effective than paclitaxel alone
SK-OV-3 cells; gemcitabine 80 mg/kg + carboplatin 15 mg/kg i.p. dosing days 2, 9 + CORT125134 20 mg/kg i.p. dosing days 1, 2, 8, 9
  effect on tumor growth, combination of gemcitabine/carboplatin with CORT125134: significant inhibition of tumor growth
SK-OV-3 cells; [2]
  p, combination compared to vehicle: < 0.001
  p, combination compared with carboplatin/gemcitabine: < 0.01
22Rv1 cells
  effect on tumor growth, CORT125134 in castrated mice compared to mice not castrated: inhibited tumor growth
  p, CORT125134 in castrated mice compared to mice not castrated: < 0.0001
22Rv1 cells; castrated mice
  p, castration and CORT125134 vs castration alone: < 0.05
  tumor growth, combination of castration and CORT125134 compared with castration alone: more effective than castration alone
Cervical cancer
  reduction of tumor size at the end of the treatment period (enhanced MRI): more than 50%
MDA-MB-231 cells; [3]
  p, combination compared to paclitaxel alone: < 0.05
  p, combination compared to vehicle treated mice: < 0.05
MDA-MB-231 cells; paclitaxel 5 mg/kg i.v. every 4 days + CORT125134 30 mg/kg p.o. daily, 28 days
  effect on tumor growth, combination of paclitaxel and CORT125134: significant inhibition of tumor growth

## CC(=O)O[C@H]1C(=O)[C@@]2(C)[C@H]([C@H](OC(=O)c3ccccc3)[C@]3(O)C[C@H](OC(=O)[C@H](O)[C@@H](NC(=O)c4ccccc4)c4ccccc4)C(C)=C1C3(C)C)[C@]1(OC(C)=O)CO[C@@H]1C[C@@H]2O [paclitaxel, reference compound]
[1]; paclitaxel 7.5 mg/kg i.v. every 4 days (Group 2) vs vehicle (Group 1)
  p, tumor growth comparison Group 1 vs Group 2: 0.0281
[1]; paclitaxel 15 mg/kg i.v. every 4 days (Group 4) vs vehicle (Group 1)
  p, tumor growth comparison Group 1 vs Group 4: 0.0006
MDA-MB-231 cells; paclitaxel 5 mg/kg i.v. every 4 days
  p compared with vehicle treated mice, paclitaxel alone: not significant
MDA-MB-231 cells; paclitaxel 5 mg/kg i.v. every 4 days, 28 days
  effect on tumor growth, paclitaxel alone: ineffective

From patent publication US12285425B2, “Glucocorticoid receptor modulators to treat cervical cancer” (Corcept Therapeutics, Inc., priority 2017, dated 2025)
